Data as given in paper PMC4947980 (Journal of Medicinal Chemistry, 2016).
Converted amounts (≈) assume the structure as drawn. “And” between values parts separate entries of the source, which are not always exact repeats. Equal values may be shown once.

Columns and labels:
[1] = test system: nonreplicating M. tuberculosis; test: microbe, parasite or virus in culture; assay type: cell-based, Mycobacterium tuberculosis mc^26220 (ΔpanCDΔlysA); conditions: for activity against nonreplicating M. tuberculosis, in words: multistress nonreplicating model; for NR-MIC90 3 days OD580 = 0.01 / NR-MIC90 3 days OD580 = 0.1: 3 days exposure
[2] = test system: replicating M. tuberculosis; test: MIC90 against replicating M. tuberculosis; assay type: cell-based, Mycobacterium tuberculosis mc^26220 (ΔpanCDΔlysA); conditions: for R-MIC90 3 days OD580 = 0.01: replicating; for activity against replicating M. tuberculosis on addition of clavulanate: data not shown
[3] = test system: nonreplicating wild-type M. tuberculosis; assay type: cell-based, Mycobacterium tuberculosis H37Rv; conditions: for bactericidal activity against nonreplicating wild-type M. tuberculosis (Figure S2): in words
[4] = Hydrolytic stability at pH 2, 7 and 12; assay type: physicochemical; conditions: percent remaining after a 4 h incubation at 37 °C
[5] = Parallel artificial membrane permeability assay; assay type: in vitro ADME
[6] = test system: intracellular M. tuberculosis; conditions: for CFU reduction of intracellular M. tuberculosis: IFNγ-activated macrophages, 100 μg/mL, 4 days (1) or 3 days (5)
[7] = test system: nonreplicating M. tuberculosis; test: Charcoal agar resazurin assay; assay type: cell-based; conditions: for dose-dependent decrease of CARA fluorescence, effect of NaNO2: with or without 0.5 mM NaNO2, 7 days, OD580 0.1 or 0.01
Solubility at pH 7.4 = assay type: physicochemical; conditions: after shaking at room temperature for 4 h
[8] = Stability in cell-free PBS and nonreplicating medium; assay type: physicochemical; conditions: day 6; for d6: % remaining in PBS: cell-free PBS pH 7.4, 37 °C; for d6: % remaining NR medium + 0.5 mM NaNO2: cell-free nonreplicating medium pH 5.0 with 0.5 mM NaNO2, 37 °C; for d6: % remaining NR medium: cell-free nonreplicating medium pH 5.0 without NaNO2, 37 °C
[9] = Mouse liver microsomal stability; assay type: in vitro ADME; conditions: assayed at 0-60 min
Plasma stability, mouse = conditions: 1 μg/mL, 37 °C, parent ion monitored
[10] = Human liver microsomal stability; assay type: in vitro ADME; conditions: liver microsomes, human liver microsomes t1/2, assayed at 0-60 min
M. tuberculosis = conditions: cited from earlier work
[11] = nonreplicating, 6 days exposure

COC(=O)C1=C(C)CS[C@@H]2[C@H](NC(=O)[C@H](N)c3ccccc3)C(=O)N12 [4a]
activity against nonreplicating M. tuberculosis, in words [1]: poorly active
activity against replicating M. tuberculosis, in words [2]: completely inactive

CCCOC(=O)C1=C(C)CS[C@@H]2[C@H](NC(=O)[C@H](N)c3ccccc3)C(=O)N12 [4b]
MIC90 ([1]; Mycobacterium tuberculosis, read-out: NR d7 OD=0.1 MIC90): 15.5 µg/mL (≈ 39.8 µM)

CC1=C(c2nc(C)no2)N2C(=O)[C@@H](NC(=O)[C@H](N)c3ccccc3)[C@H]2SC1 [4c]
activity against nonreplicating M. tuberculosis, in words [1]: poorly active
activity against replicating M. tuberculosis, in words [2]: completely inactive

CCCCOC(=O)C1=C(C)CS[C@@H]2[C@H](NC(=O)CCc3ccccc3)C(=O)N12 [12e]
bactericidal activity against nonreplicating wild-type M. tuberculosis (Figure S2) [3]: bactericidal

CCOC(=O)C1=C(C)CS[C@@H]2[C@H](NC(=O)CCc3ccc(OC)cc3)C(=O)N12 [12i]
bactericidal activity against nonreplicating wild-type M. tuberculosis (Figure S2) [3]: bactericidal

CC1=C(c2nc(C)no2)N2C(=O)[C@@H](NC(=O)COc3ccc(Cl)cc3)[C@H]2SC1 [18d]
bactericidal activity against nonreplicating wild-type M. tuberculosis (Figure S2) [3]: bactericidal

CC1=C(c2nc(C)no2)N2C(=O)[C@@H](NC(=O)OCC(Cl)(Cl)Cl)[C@H]2SC1 [19d]
bactericidal activity against nonreplicating wild-type M. tuberculosis (Figure S2) [3]: bactericidal

CCCc1noc(C2=C(C)CS[C@@H]3[C@H](NC(=O)CCc4ccc(OC)cc4)C(=O)N23)n1 [21b]
bactericidal activity against nonreplicating wild-type M. tuberculosis (Figure S2) [3]: bactericidal

CCCc1noc(C2=C(C)CS[C@@H]3[C@H](NC(=O)COc4ccc(Cl)cc4)C(=O)N23)n1 [22c]
bactericidal activity against nonreplicating wild-type M. tuberculosis (Figure S2) [3]: bactericidal

C[C@@H](O)[C@H]1C(=O)N2C(C(=O)O)=C(S[C@@H]3CN[C@H](C(=O)N(C)C)C3)[C@H](C)[C@H]12 [Meropenem, reference compound]
enhancement of replicating MIC90 by clavulanate ([2]; addition of clavulanate): 4 fold

CC1=C(C(=O)O)N2C(=O)[C@@H](NC(=O)[C@H](N)c3ccccc3)[C@H]2SC1 [cephalexin 4, cephalexin, reference compound]
activity against nonreplicating M. tuberculosis, in words [1]: inactive
NR-MIC90 3 days OD580 = 0.01 ([1]; nonreplicating, OD580 = 0.01): 97.93 µg/mL
NR-MIC90 3 days OD580 = 0.1 ([1]; nonreplicating): 61.35 µg/mL
NR-MIC90 6 days OD580 = 0.1 [1, 11]: 70.42 µg/mL
R-MIC90 3 days OD580 = 0.01 [2]: 33.99 µg/mL

CCCOC(=O)C1=C(C)CS[C@@H]2[C@H](NC(=O)COc3ccccc3)C(=O)N12 [compound 1, Propyl (6R,7R)-3-Methyl-8-oxo-7-(2-phenoxyacetamido)-5-thia-1-azabicyclo[4.2.0]oct-2-ene-2-carboxylate]
pH 2 stability [4]: 100% and 110%
pH 12 stability [4]: 0.000%
NR-MIC90 3 days OD580 = 0.01 ([1]; nonreplicating, OD580 = 0.01): 0.90 µg/mL
NR-MIC90 3 days OD580 = 0.1 ([1]; nonreplicating): 1.76 µg/mL
NR-MIC90 6 days OD580 = 0.01 ([1]; nonreplicating, 6 days exposure, OD580 = 0.01): 0.64 µg/mL
NR-MIC90 6 days OD580 = 0.1 [1, 11]: 1.05 µg/mL
PAMPA log Pe [5]: –5.15
CFU reduction of intracellular M. tuberculosis [6]: 1–2 log10
enhancement of activity by nitrite ([7]; CARA, OD580 0.01, 0.5 mM NaNO2): 32- to 64 fold
dose-dependent decrease of CARA fluorescence, effect of NaNO2 [7]: strongly enhanced by the addition of NaNO2
solubility (Solubility at pH 7.4): 22.7 µM (≈ 8.86 µg/mL)
solubility at 4 h (Solubility at pH 7.4; pH 7.4, solubility): 23 µM (≈ 8.98 µg/mL)
d6: % remaining in PBS [8]: stable
d6: % remaining NR medium + 0.5 mM NaNO2 [8]: stable
d6: % remaining NR medium [8]: stable
mouse liver microsomes t1/2 [9]: rapidly metabolized
stability in mouse plasma (time to complete transformation) (Plasma stability, mouse): < 5 min
activity against replicating M. tuberculosis on addition of clavulanate ([2]; addition of clavulanate): did not lead to activity
R-MIC90 3 days OD580 = 0.01 [2]: >100 µg/mL
concentration that reduced colony-forming units by 2 log10 [3]: 0.7–0.8 μg/mL

CCCOC(=O)N[C@@H]1C(=O)N2C(C(=O)OCCC)=C(C)CS[C@H]12 [compound 2]
NR-MIC90 3 days OD580 = 0.01 ([1]; nonreplicating, OD580 = 0.01): 3.11 µg/mL
NR-MIC90 3 days OD580 = 0.1 ([1]; nonreplicating): 2.61 µg/mL
NR-MIC90 6 days OD580 = 0.1 [1, 11]: 0.52 µg/mL
d6: % remaining in PBS [8]: stable
d6: % remaining NR medium + 0.5 mM NaNO2 [8]: stable
d6: % remaining NR medium [8]: stable
activity against replicating M. tuberculosis on addition of clavulanate ([2]; addition of clavulanate): did not lead to activity
R-MIC90 3 days OD580 = 0.01 [2]: 55.44 µg/mL

CCCN[C@@H]1C(=O)N2C(C(=O)OCCC)=C(C)CS[C@H]12 [compound 3]
activity against nonreplicating M. tuberculosis, in words [1]: significant activity
NR-MIC90 3 days OD580 = 0.01 ([1]; nonreplicating, OD580 = 0.01): 0.7 µg/mL
NR-MIC90 3 days OD580 = 0.1 ([1]; nonreplicating): 2.69 µg/mL
NR-MIC90 6 days OD580 = 0.1 [1, 11]: 0.45 µg/mL
d6: % remaining NR medium + 0.5 mM NaNO2 [8]: unstable
activity against replicating M. tuberculosis on addition of clavulanate ([2]; addition of clavulanate): did not lead to activity
R-MIC90 3 days OD580 = 0.01 [2]: >100 µg/mL

CC1=C(c2nc(C)no2)N2C(=O)[C@@H](NC(=O)COc3ccccc3)[C@H]2SC1 [compound 5, N-((6R,7R)-3-Methyl-2-(3-methyl-1,2,4-oxadiazol-5-yl)-8-oxo-5-thia-1-azabicyclo[4.2.0]oct-2-en-7-yl)-2-phenoxyacetamide]
pH 2 stability [4]: 100%
pH 12 stability [4]: 0.000%
PAMPA log Pe [5]: –4.87
CFU reduction of intracellular M. tuberculosis [6]: 1–2 log10
IFNγ dependence of bactericidal activity against intracellular M. tuberculosis ([6]; macrophages activated or not with 50 ng/mL IFNγ): strictly IFNγ dependent
half-life [10]: ~1.33 h
dose-dependent decrease of CARA fluorescence, effect of NaNO2 [7]: strongly enhanced by the addition of NaNO2
solubility (Solubility at pH 7.4): 83.7 µM (≈ 32.3 µg/mL)
d6: % remaining NR medium + 0.5 mM NaNO2 [8]: stable
mouse liver microsomes t1/2 [9]: rapidly metabolized
stability in mouse plasma (time to complete transformation) (Plasma stability, mouse): < 5 min
concentration that reduced colony-forming units by 2 log10 [3]: 0.7–0.8 μg/mL
bactericidal activity against nonreplicating wild-type M. tuberculosis (Figure S2) [3]: bactericidal

COCC1=C(C)CS[C@@H]2[C@H](NC(=O)COc3ccccc3)C(=O)N12 [compound 10]
activity against nonreplicating M. tuberculosis, in words [1]: inactive

CCCc1noc(C2=C(C)CS[C@@H]3[C@H](NC(=O)c4ccc(Cl)cc4)C(=O)N23)n1 [compound 23]
bactericidal activity against nonreplicating wild-type M. tuberculosis (Figure S2) [3]: bactericidal

C[C@@H](O)[C@H]1C(=O)N2C(C(=O)O)=C([C@H]3CCCO3)S[C@H]12 [faropenem, reference compound]
activity against nonreplicating M. tuberculosis, in words [1]: inactive
killing of replicating and nongrowing M. tuberculosis (M. tuberculosis): kill both replicating and nongrowing M. tuberculosis
